In patent publication US20230416238A1, “N-[(1,3-BENZOXAZOL-2-YL)-HETEROCYCLE]AMIDE DERIVATIVES FOR THE TREATMENT AND PROPHYLAXIS OF HEPATITIS B VIRUS INFECTION” (Hoffmann-La Roche Inc., priority 2020, published 2023):

Legend:
Type in all cases: cell-based
HBsAg = experiment: PHH HBV natural infection assay, HBsAg (alphalisa); settings: Hepatitis B virus, Hepatocyte, read-out: HBsAg IC50
Procedure, shortened: (§1)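 Primary human hepatocytes infected with HBV at 200 GE/cell plus 4% PEG8000 for 24 h, then sandwich-cultured 72 h in medium with 1% DMSO. Compound applied twice at 72-h intervals; supernatant HBsAg and HBeAg quantified by AlphaLISA.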

HBeAg = experiment: PHH HBV natural infection assay, HBeAg (alphalisa); settings: Hepatitis B virus, Hepatocyte, read-out: HBeAg IC50
Procedure, shortened: as §1

[1] = Cytotoxicity in PHH natural infection assay (Cell Counting Kit-8); settings: HBV-infected primary human hepatocytes, CCK8
Procedure, shortened: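 HBV-infected primary human hepatocytes (200 GE/cell, 4% PEG8000, 24 h), then sandwich-cultured 72 h. Cells dosed at varying concentrations for two 72-hour cycles, with medium refreshed. Cytotoxicity read by CCK-8 at end of treatment.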

| SMILES | IC50 (HBsAg) [µM] | IC50 (HBeAg) [µM] | CC50 at 144 h [1] [µM] |
| --- | --- | --- | --- |
| O=C(NC1CCC2(CC1)CCN(c1nc3cc(Cl)ccc3o1)CC2)C1CC2(C1)CS(=O)(=O)C2 [Example 95, N-[3-(5-chloro-1,3-benzoxazol-2-yl)-3-azaspiro[5.5]undecan-9-yl]-2,2-dioxo-2-λ^6-thiaspiro[3.3]heptane-6-carboxamide] | 1.67 | 3.62 | > 100 |
| CC1(C(=O)NC2CCC3(CC2)CCN(c2nc4cc(Cl)ccc4o2)CC3)CC[S+]([O-])CC1 (stereo not drawn) [Example 98, N-[3-(5-chloro-1,3-benzoxazol-2-yl)-3-azaspiro[5.5]undecan-9-yl]-4-methyl-1-oxo-thiane-4-carboxamide] | 4.23 | 2.23 | > 100 |
| O=C(NCC1CCN(c2nc3cc(Cl)ccc3o2)CC1)c1ccc(C(F)(F)F)o1 [Example 7, N-[[1-(5-chloro-1,3-benzoxazol-2-yl)-4-piperidyl]methyl]-5-(trifluoromethyl)furan-2-carboxamide] | 3.83 | 3.45 | 96.7 |
| O=C(NC1CCC2(CC1)CCN(c1nc3cc(Cl)ccc3o1)CC2)c1ccc(S(=O)(=O)NC(=O)C2CCC2)o1 [Example 111, N-[3-(5-chloro-1,3-benzoxazol-2-yl)-3-azaspiro[5.5]undecan-9-yl]-5-(cyclobutanecarbonylsulfamoyl)furan-2-carboxamide] | 5.45 | 3.47 | 85.7 |
| O=C(NC1CC2(C1)CN(c1nc3cc(Cl)ccc3o1)C2)c1ccc(S(=O)(=O)C2CC2)o1 [Example 44, N-[2-(5-chloro-1,3-benzoxazol-2-yl)-2-azaspiro[3.3]heptan-6-yl]-5-cyclopropylsulfonyl-furan-2-carboxamide] | 2.27 | 1.28 | > 100 |
| O=C(NC1CC2(C1)CN(c1nc3cc(Cl)ccc3o1)C2)C1CCS(=O)(=O)CC1 [Example 36, N-[2-(5-chloro-1,3-benzoxazol-2-yl)-2-azaspiro[3.3]heptan-6-yl]-1,1-dioxo-thiane-4-carboxamide] | 8.28 | 4.03 | > 100 |
| CN(C)C(=O)NC1CC2(C1)CN(c1nc3cc(Cl)ccc3o1)C2 [Example 23, 3-[2-(5-Chloro-1,3-benzoxazol-2-yl)-2-azaspiro[3.3]heptan-6-yl]-1,1-dimethyl-urea] | 7.63 | 6.62 | > 100 |
| CC(C)CC(=O)NC1CCC2(CC1)CCN(c1nc3cc(Cl)ccc3o1)CC2 [Example 80, N-[3-(5-chloro-1,3-benzoxazol-2-yl)-3-azaspiro[5.5]undecan-9-yl]-3-methyl-butanamide] | 2.7 | 2.79 | > 100 |
| CC(C)CC(=O)NC1CC2(C1)CN(c1nc3cc(Cl)ccc3o1)C2 [Example 28, N-[2-(5-chloro-1,3-benzoxazol-2-yl)-2-azaspiro[3.3]heptan-6-yl]-3-methyl-butanamide] | 3.31 | 2.18 | 76.6 |
| O=C(NC1CCC2(CCN(c3nc4cc(Cl)ccc4o3)C2)C1)C1CCS(=O)(=O)C1 (stereo not drawn) [Example 74, N-[2-(5-chloro-1,3-benzoxazol-2-yl)-2-azaspiro[4.4]nonan-8-yl]-1,1-dioxo-thiolane-3-carboxamide] | 4.33 | 3.73 | > 100 |
| O=C(NC1CCC2(CC1)CCN(c1nc3cc(Cl)ccc3o1)CC2)C1CCC(F)(F)C1 (stereo not drawn) [Example 101, N-[3-(5-chloro-1,3-benzoxazol-2-yl)-3-azaspiro[5.5]undecan-9-yl]-3,3-difluoro-cyclopentanecarboxamide] | 4.16 | 4.29 | > 100 |
| O=C(NC1CCC2(CC1)CCN(c1nc3cc(Cl)ccc3o1)CC2)C1COC1 [Example 85, N-[3-(5-chloro-1,3-benzoxazol-2-yl)-3-azaspiro[5.5]undecan-9-yl]oxetane-3-carboxamide] | 8.75 | 6.13 | 70.9 |
| O=C(NC1CC2(CCN(c3nc4cc(Cl)ccc4o3)C2)C1)C1CCS(=O)(=O)C1 (stereo not drawn) [Example 71, N-[6-(5-chloro-1,3-benzoxazol-2-yl)-6-azaspiro[3.4]octan-2-yl]-1,1-dioxo-thiolane-3-carboxamide] | 8.21 | 5.96 | 94.1 |
| CCS(=N)(=O)c1ccc(C(=O)NC2CCC3(CC2)CCN(c2nc4cc(Cl)ccc4o2)CC3)o1 (stereo not drawn) [Example 114, N-[3-(5-chloro-1,3-benzoxazol-2-yl)-3-azaspiro[5.5]undecan-9-yl]-5-(ethylsulfonimidoyl)furan-2-carboxamide] | 3.54 | 3.1 | 93.3 |
| O=C(NC1CC2(C1)CN(c1nc3ccc(Cl)cc3o1)C2)c1ccnc(S(=O)(=O)C2CC2)c1 [Example 37, N-[2-(6-chloro-1,3-benzoxazol-2-yl)-2-azaspiro[3.3]heptan-6-yl]-2-cyclopropylsulfonyl-pyridine-4-carboxamide] | 7.75 | 6.26 | > 10 |
| CC(C)(C)C(=O)NC1CC2(C1)CN(c1nc3cc(Cl)ccc3o1)C2 [Example 27, N-[2-(5-chloro-1,3-benzoxazol-2-yl)-2-azaspiro[3.3]heptan-6-yl]-2,2-dimethyl-propanamide] | 5.67 | 3.69 | > 100 |
| O=C(NC1CCC2(CC1)CCN(c1nc3cc(Cl)ccc3o1)CC2)c1ccc(S(=O)(=O)CC2CC2)o1 [Example 121, N-[3-(5-chloro-1,3-benzoxazol-2-yl)-3-azaspiro[5.5]undecan-9-yl]-5-(cyclopropylmethylsulfonyl)furan-2-carboxamide] | 1.54 | 1.16 | > 100 |
| NS(=O)(=O)c1ccc(C(=O)NC2CCC3(CC2)CCN(c2nc4cc(Cl)ccc4o2)CC3)o1 [Example 108, N-[3-(5-chloro-1,3-benzoxazol-2-yl)-3-azaspiro[5.5]undecan-9-yl]-5-sulfamoyl-furan-2-carboxamide] | 6.69 | 4.18 | > 10 |
| O=C(NC1CCC2(CC1)CCN(c1nc3cc(Cl)ccc3o1)CC2)C1CCS(=O)(=O)CC1 [Example 96, N-[3-(5-chloro-1,3-benzoxazol-2-yl)-3-azaspiro[5.5]undecan-9-yl]-1,1-dioxo-thiane-4-carboxamide] | 0.957 | 0.727 | 93.6 |
| CCS(=O)(=O)c1cc(C(=O)NC2CC3(C2)CN(c2nc4cc(Cl)ccc4o2)C3)ccn1 [Example 53, N-[2-(5-chloro-1,3-benzoxazol-2-yl)-2-azaspiro[3.3]heptan-6-yl]-2-ethylsulfonyl-pyridine-4-carboxamide] | 1.41 | 0.785 | 93.2 |
| O=C(NC1CC2(CCN(c3nc4cc(Cl)ccc4o3)CC2)C1)c1ccc(C(F)(F)F)o1 [Example 77, N-[7-(5-chloro-1,3-benzoxazol-2-yl)-7-azaspiro[3.5]nonan-2-yl]-5-(trifluoromethyl)furan-2-carboxamide] | 5.04 | 2.98 | > 100 |
| O=C(NC1CCC2(CC1)CCN(c1nc3ccc(Cl)cc3o1)CC2)C1CCS(=O)(=O)C1 (stereo not drawn) [Example 94, N-[3-(6-chloro-1,3-benzoxazol-2-yl)-3-azaspiro[5.5]undecan-9-yl]-1,1-dioxo-thiolane-3-carboxamide] | 1.73 | 1.4 | 90.6 |
| O=C(NC1CC2(C1)CN(c1nc3cc(Cl)ccc3o1)C2)c1ccc(C(F)(F)F)o1 [Example 42, N-[2-(5-chloro-1,3-benzoxazol-2-yl)-2-azaspiro[3.3]heptan-6-yl]-5-(trifluoromethyl)furan-2-carboxamide] | 5.66 | 4.67 | > 100 |
| CC[S+]([O-])c1ccc(C(=O)NC2CCC3(CC2)CCN(c2nc4cc(Cl)ccc4o2)CC3)o1 (stereo not drawn) [Example 103, N-[3-(5-chloro-1,3-benzoxazol-2-yl)-3-azaspiro[5.5]undecan-9-yl]-5-ethylsulfinyl-furan-2-carboxamide] | 1.35 | 1.85 | 72.7 |
| O=C(NC1CCC2(C1)CN(c1nc3cc(Cl)ccc3o1)C2)c1ccc(C(F)(F)F)o1 (stereo not drawn) [Example 69, N-[2-(5-chloro-1,3-benzoxazol-2-yl)-2-azaspiro[3.4]octan-6-yl]-5-(trifluoromethyl)furan-2-carboxamide] | 4.41 | 4.01 | 83.2 |
| O=C(NC1CC2(C1)CN(c1nc3cc(Cl)ccc3o1)C2)c1ccc(S(=O)(=O)NC2CC2)o1 [Example 59, N-[2-(5-chloro-1,3-benzoxazol-2-yl)-2-azaspiro[3.3]heptan-6-yl]-5-(cyclopropylsulfamoyl)furan-2-carboxamide] | 2.84 | 1.46 | > 10 |
| CS(=O)(=O)c1cc(C(=O)NCC2CCN(c3nc4cc(Cl)ccc4o3)CC2)ccn1 [Example 5, N-[[1-(5-chloro-1,3-benzoxazol-2-yl)-4-piperidyl]methyl]-2-methylsulfonyl-pyridine-4-carboxamide] | 4.68 | 4.93 | > 10 |
| COc1cc(C(=O)NC2CC3(C2)CN(c2nc4ccc(Cl)cc4o2)C3)ccn1 [Example 38, N-[2-(6-chloro-1,3-benzoxazol-2-yl)-2-azaspiro[3.3]heptan-6-yl]-2-methoxy-pyridine-4-carboxamide] | 6.89 | 5.73 | > 10 |
| CS(=O)(=O)c1ccc(C(=O)NC2CC3(C2)CN(c2nc4cc(Cl)ccc4o2)C3)o1 [Example 56, N-[2-(5-chloro-1,3-benzoxazol-2-yl)-2-azaspiro[3.3]heptan-6-yl]-5-methylsulfonyl-furan-2-carboxamide] | 1.22 | 0.996 | > 100 |
